Measurements as given in patent US9783527B2, “Indazole ureas and method of use” (AbbVie Inc., priority 2014, dated 2017).

Assays:
human Nav1.7 = human Nav1.7 (Homo sapiens (Human), UniProt Q15858); assay: FRET-based membrane potential assay, recombinant human sodium channel Nav1.7; format: cell-based; conditions: HEK293 cells stably expressing recombinant human Nav1.7; depolarization with veratridine (EC80) + scorpion venom
Outline: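 IC50 derived by four-parameter Hill fit of percent inhibition of depolarization, measured as peak F440-480/F565-625 ratio over baseline. Stable human Nav1.7 HEK293 cells, dye-loaded with CC2-DMPE and DiSBAC2(3)/VABSC-1 at room temperature, received compound 3 min ahead of veratridine (EC80) plus scorpion venom.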

human Nav1.8 = human Nav1.8 (Homo sapiens (Human), UniProt Q9Y5Y9); assay: FRET-based membrane potential assay, recombinant human sodium channel Nav1.8; format: cell-based; conditions: HEK293 cells stably expressing recombinant human Nav1.8; depolarization with veratridine (EC80) + scorpion venom
human Nav1.8, sequence (Q9Y5Y9 whole entry): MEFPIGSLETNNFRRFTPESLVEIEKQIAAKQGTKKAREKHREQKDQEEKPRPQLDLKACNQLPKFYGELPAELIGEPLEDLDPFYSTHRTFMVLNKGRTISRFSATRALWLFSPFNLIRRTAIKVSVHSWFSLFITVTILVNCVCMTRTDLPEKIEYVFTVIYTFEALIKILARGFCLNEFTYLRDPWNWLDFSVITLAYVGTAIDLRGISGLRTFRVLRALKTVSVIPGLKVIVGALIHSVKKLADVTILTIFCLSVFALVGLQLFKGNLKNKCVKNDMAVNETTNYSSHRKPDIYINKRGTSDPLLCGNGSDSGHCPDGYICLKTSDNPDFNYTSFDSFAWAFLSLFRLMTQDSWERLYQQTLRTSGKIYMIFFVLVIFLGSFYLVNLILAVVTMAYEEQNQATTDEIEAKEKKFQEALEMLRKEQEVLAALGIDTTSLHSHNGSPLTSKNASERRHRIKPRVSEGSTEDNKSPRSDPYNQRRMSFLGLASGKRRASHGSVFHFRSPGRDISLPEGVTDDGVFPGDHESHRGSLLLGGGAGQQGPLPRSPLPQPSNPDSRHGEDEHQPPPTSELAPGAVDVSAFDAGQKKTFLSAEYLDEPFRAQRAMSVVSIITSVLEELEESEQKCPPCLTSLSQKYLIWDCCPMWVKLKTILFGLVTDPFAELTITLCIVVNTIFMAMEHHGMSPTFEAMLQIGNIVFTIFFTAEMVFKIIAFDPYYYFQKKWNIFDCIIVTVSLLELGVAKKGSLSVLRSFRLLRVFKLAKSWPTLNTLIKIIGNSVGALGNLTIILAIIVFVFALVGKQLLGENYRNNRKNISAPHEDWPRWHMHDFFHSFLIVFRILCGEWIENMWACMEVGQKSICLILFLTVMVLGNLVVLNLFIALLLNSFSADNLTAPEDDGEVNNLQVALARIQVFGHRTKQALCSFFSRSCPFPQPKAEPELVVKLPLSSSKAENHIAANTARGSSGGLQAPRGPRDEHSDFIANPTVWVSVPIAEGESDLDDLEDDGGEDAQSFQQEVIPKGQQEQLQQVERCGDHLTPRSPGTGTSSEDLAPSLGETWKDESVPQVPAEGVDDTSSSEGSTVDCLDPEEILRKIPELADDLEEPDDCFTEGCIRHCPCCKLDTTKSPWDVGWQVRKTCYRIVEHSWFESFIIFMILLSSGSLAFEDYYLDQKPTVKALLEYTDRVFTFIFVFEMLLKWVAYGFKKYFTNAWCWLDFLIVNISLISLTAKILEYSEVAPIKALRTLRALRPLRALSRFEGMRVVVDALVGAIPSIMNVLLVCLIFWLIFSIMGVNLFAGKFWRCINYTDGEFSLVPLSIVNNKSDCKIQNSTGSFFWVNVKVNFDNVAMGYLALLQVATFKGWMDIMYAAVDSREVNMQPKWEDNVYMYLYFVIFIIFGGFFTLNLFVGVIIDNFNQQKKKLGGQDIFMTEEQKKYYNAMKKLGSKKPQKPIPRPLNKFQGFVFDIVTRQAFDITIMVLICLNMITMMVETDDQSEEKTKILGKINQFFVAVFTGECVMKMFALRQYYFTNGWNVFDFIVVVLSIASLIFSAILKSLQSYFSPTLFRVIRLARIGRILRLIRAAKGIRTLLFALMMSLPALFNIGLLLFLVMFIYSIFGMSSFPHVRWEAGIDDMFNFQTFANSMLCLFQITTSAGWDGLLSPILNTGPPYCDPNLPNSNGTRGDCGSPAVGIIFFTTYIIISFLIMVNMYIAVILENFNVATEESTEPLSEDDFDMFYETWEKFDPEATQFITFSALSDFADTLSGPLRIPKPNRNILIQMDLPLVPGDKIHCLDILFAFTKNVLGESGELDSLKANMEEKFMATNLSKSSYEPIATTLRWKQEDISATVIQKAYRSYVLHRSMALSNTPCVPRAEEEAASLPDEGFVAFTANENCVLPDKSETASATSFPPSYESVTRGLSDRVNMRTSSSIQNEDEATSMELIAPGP
Outline: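 HEK293 cells stably expressing Nav1.8 were loaded with CC2-DMPE/DiSBAC2(3) FRET voltage dyes. Compounds were added 3 min before depolarization with EC80 veratridine plus scorpion venom. The F440-480/F565-625 ratio was read on FLIPR; IC50 came from four-parameter Hill fits.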

human Nav1.7, sequence (Q15858 whole entry): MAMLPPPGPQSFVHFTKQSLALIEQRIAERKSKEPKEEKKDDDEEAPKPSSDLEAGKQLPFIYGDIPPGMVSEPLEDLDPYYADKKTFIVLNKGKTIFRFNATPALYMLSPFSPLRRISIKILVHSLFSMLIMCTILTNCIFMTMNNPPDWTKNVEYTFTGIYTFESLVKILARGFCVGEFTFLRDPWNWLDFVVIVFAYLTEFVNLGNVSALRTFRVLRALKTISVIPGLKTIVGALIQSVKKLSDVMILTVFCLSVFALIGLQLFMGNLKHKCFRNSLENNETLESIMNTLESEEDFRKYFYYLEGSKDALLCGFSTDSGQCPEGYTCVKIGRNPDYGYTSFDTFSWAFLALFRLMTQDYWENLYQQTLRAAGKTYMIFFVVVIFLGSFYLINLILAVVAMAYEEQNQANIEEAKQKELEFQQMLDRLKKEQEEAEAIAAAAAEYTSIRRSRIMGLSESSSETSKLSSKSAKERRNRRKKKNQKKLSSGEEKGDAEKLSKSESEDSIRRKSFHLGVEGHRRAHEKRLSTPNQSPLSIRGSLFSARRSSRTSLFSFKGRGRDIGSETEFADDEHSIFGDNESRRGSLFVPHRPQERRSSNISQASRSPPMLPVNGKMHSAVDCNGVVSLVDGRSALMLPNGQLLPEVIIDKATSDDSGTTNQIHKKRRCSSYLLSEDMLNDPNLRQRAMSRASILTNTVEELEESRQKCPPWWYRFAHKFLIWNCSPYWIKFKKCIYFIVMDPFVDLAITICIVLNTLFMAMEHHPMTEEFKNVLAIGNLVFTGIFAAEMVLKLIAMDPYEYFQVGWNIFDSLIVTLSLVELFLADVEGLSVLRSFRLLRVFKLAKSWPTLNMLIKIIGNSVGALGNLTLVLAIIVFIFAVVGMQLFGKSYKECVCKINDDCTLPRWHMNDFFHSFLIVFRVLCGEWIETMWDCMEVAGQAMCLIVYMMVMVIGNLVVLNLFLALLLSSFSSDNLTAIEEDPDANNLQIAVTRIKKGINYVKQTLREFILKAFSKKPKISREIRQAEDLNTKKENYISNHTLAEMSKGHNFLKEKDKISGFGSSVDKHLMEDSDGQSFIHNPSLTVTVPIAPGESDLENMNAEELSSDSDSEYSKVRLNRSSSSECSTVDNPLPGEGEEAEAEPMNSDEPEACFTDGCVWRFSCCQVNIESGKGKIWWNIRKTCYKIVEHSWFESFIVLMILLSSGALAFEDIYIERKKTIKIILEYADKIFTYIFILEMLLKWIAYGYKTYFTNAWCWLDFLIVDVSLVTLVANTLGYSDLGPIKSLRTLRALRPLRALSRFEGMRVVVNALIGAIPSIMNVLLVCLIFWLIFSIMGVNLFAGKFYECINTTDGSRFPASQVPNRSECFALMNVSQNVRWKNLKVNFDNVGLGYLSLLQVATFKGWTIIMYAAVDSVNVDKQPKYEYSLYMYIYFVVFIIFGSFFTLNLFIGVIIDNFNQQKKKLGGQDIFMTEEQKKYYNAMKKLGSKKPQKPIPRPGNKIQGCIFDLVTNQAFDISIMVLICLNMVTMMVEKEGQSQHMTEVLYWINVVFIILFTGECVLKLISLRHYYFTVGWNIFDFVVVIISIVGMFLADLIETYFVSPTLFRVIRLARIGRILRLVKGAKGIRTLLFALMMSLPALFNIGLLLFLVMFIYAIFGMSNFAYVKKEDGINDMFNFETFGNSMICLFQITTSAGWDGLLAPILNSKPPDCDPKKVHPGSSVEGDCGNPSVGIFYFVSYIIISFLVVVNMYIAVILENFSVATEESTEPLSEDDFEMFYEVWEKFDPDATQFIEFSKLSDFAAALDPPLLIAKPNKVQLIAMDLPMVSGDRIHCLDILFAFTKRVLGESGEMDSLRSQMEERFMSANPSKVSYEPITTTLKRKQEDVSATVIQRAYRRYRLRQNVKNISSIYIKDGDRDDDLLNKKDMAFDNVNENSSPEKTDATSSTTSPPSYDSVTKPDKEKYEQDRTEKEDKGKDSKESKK

SMILES | IC50 (human Nav1.7) [nM] | IC50 (human Nav1.8) [nM]
Cc1noc(C(C)N2CCN(c3cccc4c3cnn4-c3ccccc3F)C2=O)n1 (racemic) [Example 46, 1-[1-(2-fluorophenyl)-1H-indazol-4-yl]-3-[1-(3-methyl-1,2,4-oxadiazol-5-yl)ethyl]imidazolidin-2-one] | 1870 | 8730
O=C(CN1CCN(c2cccc3c2cnn3-c2ccccc2F)C1=O)N[C@@H]1CCOC1 [Example 55, 2-{3-[1-(2-fluorophenyl)-1H-indazol-4-yl]-2-oxoimidazolidin-1-yl}-N-[(3R)-tetrahydrofuran-3-yl]acetamide] | 2240 | 5280
Cc1noc(C)c1CN1CCN(c2cccc3c2cnn3-c2ccccc2F)C1=O [Example 27, 1-[(3,5-dimethyl-1,2-oxazol-4-yl)methyl]-3-[1-(2-fluorophenyl)-1H-indazol-4-yl]imidazolidin-2-one] | 546 | 1040
C[C@H]1CCCN1C(=O)CN1CCN(c2cccc3c2cnn3-c2ccccc2F)C1=O [Example 15, 1-[1-(2-fluorophenyl)-1H-indazol-4-yl]-3-{2-[(2S)-2-methylpyrrolidin-1-yl]-2-oxoethyl}imidazolidin-2-one] | 625 | 1810
